Our source for the Ki, GelA (Ki,app) and melting point values is patent US6495699B2, “Metalloproteinase inhibitors, pharmaceutical compositions containing them, and their use” (Agouron Pharmaceuticals Inc., priority 1996, dated 2002).

Molecules are shown by their SMILES. Counter-ions that a name gives are not always drawn.

Series [1] has as its target T1, catalytic domain of human stromelysin (Hsln) (Homo sapiens, UniProt P08254).
T1 construct: The catalytic domain of human stromelysin (Hsln) was obtained by expression and purification of a C-terminally truncated prostromelysin-1; made in house; host or cells: E. coli BL21
Kind of series: Fluorometric MCA-peptide hydrolysis assay, stromelysin (Hsln). The format is biochemical. To be noted: apparent Ki; 10 μM MCA peptide substrate, 37° C., pH 7.5; read-out: Hsln (Ki,app). How it is done: The catalytic domain of human stromelysin (Hsln) was obtained by expression and purification of a C-terminally truncated prostromelysin-1 from E. coli host BL21 (see Marcy et al. Biochem., 1991, 30, 6476). The subsequent activation of the mature form (Hsln) was completed with 2 mM APMA for 1 hour at 37° C., followed by separation using a sizing column.
(§1) Assays were performed in assay buffer (50 mM Tricine pH 7.5, 200 mM sodium chloride, 10 mM calcium chloride, 0.5 mM zinc acetate containing 2% dimethyl sulfoxide (DMSO)) once the substrate and inhibitor were diluted into it. Stock solutions of inhibitors were prepared in 100% DMSO. Stock solutions of the substrate were prepared in 100% DMSO at a concentration of 6 mM.
(§2) The assay method was based on the hydrolysis of MCA-Pro-Leu-Gly-Leu-DPA-Ala-Arg-NH2 (American Peptide Co.) at 37° C. (see Knight, C. G. et al., FEBS, 1992, 296, 263-266). The fluorescence changes were monitored with a Perkin-Elmer LS-50B fluorimeter using an excitation wavelength of 328 nm and an emission wavelength of 393 nm. The substrate concentration used in the assays was 10 μM. The inhibitor was diluted into the assays from a solution in 100% DMSO, and controls substituted an equal volume of DMSO so that the final DMSO concentration from inhibitor and substrate dilution in all assays was 2%. […] Proper determination of steady-state rates of substrate cleavage required assay lengths of 60 minutes to allow for complete equilibration of the enzyme-inhibitor complex.
(§3) The Km for the MCA peptide substrate with the matrix metalloproteinases is quite high and exceeds its solubility under assay conditions. Consequently, the apparent Ki (Ki,app) was determined to describe the strength of inhibition. However, in this case, Ki,app would be essentially equal to Ki since [S]<<Km. For the determination of Ki,app, the concentration of the inhibitor was varied at a constant and low concentration of substrate and the steady-state rates of fluorescence change determined. In most cases absorptive quench due to the presence of ligand was not observed. For slow-binding inhibitors, onset of inhibition curves were collected for at least 45 minutes so that equilibrium was established. Steady-state rates of fluorescence change were obtained by fitting a curve to an equation for a single exponential decay containing a linear phase. The fitted value of the linear phase was taken as the steady-state rate. The steady-state rates were fitted to the Michaelis equation describing competitive inhibition by non-linear methods. Data resulting from tight-binding inhibition was analyzed, and Ki,app determined by fitting the data to the tight-binding equation of Morrison (Biochem. Biophys. Acta, vol. 185, pp. 269-286 (1969)) by non-linear methods.

For another series, the target named is T2, Human matrilysin (Matr) (Homo sapiens, UniProt P09237).
T2 construct: the catalytic domain was liberated by treatment with 2 mM APMA at 37° C. for 2 hours; ubiquitin (cleaved yes); made in house; host or cells: E. coli
T2 sequence (P09237 95-267): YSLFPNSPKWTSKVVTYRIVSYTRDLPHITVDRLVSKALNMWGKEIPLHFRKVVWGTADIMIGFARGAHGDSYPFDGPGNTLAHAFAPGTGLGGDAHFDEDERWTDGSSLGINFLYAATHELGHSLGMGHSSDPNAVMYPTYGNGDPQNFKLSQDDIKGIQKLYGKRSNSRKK
The experiment in a line: Fluorometric MCA-peptide hydrolysis assay, matrilysin (Matr). The format is biochemical. To be noted: apparent Ki; 10 μM MCA peptide substrate, 37° C., pH 7.5; read-out: Matr (Ki,app). The method, then:
Human matrilysin (Matr) was expressed in E. coli as a fusion protein with ubiquitin. After purification of the matrilysin/ubiquitin fusion from inclusion bodies, the catalytic domain was liberated by treatment with 2 mM APMA at 37° C. for 2 hours. Final purification was complete using copper chelate chromatography.
as §1, §2, §3

Series [2] has as its target T3, human progelatinase A (GelA), catalytic and fibronectin-like portion (Homo sapiens, UniProt P08253).
T3 construct: The catalytic and fibronectin-like portion of human progelatinase A (GelA) was expressed as a fusion protein with ubiquitin; ubiquitin; made in house; host or cells: E. coli
Kind of series: Fluorometric MCA-peptide hydrolysis assay, gelatinase A (GelA). The format is biochemical. The conditions noted are these: apparent Ki; 10 μM MCA peptide substrate, 37° C., pH 7.5. The method, then:
The catalytic and fibronectin-like portion of human progelatinase A (GelA) was expressed as a fusion protein with ubiquitin in E. Coli. Assays were carried out on autocatalytically activated material.
as §1, §2, §3

Series [3] addresses T4, human collagenase-3 (Coll3) (Homo sapiens, UniProt P45452).
T4 construct: the catalytic domain was liberated by treatment with 2 mM APMA at room temperature overnight; ubiquitin (N, cleaved yes); made in house; host or cells: E. coli
The experiment in a line: Fluorometric MCA-peptide hydrolysis assay, collagenase-3 (Coll3). The format is biochemical. To be noted: apparent Ki; 10 μM MCA peptide substrate, 37° C., pH 7.5; read-out: Coll3 (Ki,app). How it is done: The propeptide and catalytic domain of human collagenase-3 (Coll3) was expressed in E. coli as an N-terminal fusion protein with ubiquitin. After purification of the fusion from inclusion bodies, the catalytic domain was liberated by treatment with 2 mM APMA at room temperature overnight. Final purification was completed using copper chelate chromatography.
as §1, §2
as §3, with “In most cases absorptive quench due to the presence of ligand was not observed.” left out

In series [4] the target is T5, fibroblast collagenase-1 catalytic domain (HFC) (Homo sapiens, UniProt P03956).
T5 construct: The catalytic domain of human collagenase-1 was expressed as a fusion protein with ubiquitin in E. coli; ubiquitin (cleaved yes); made in house; host or cells: E. coli
T5 sequence (P03956 100-269 limits assumed): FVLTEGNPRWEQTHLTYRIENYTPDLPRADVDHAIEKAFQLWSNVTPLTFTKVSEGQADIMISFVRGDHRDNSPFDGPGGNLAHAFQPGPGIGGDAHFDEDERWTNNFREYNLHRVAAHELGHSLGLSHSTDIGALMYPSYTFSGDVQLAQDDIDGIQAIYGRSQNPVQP
Kind of series: Fluorometric MCA-peptide hydrolysis assay, fibroblast collagenase-1 (HFC). The format is biochemical. The conditions noted are these: apparent Ki; 10 μM MCA peptide substrate, 37° C., pH 7.5; read-out: HFC (Ki,app). How it is done: The catalytic domain of human collagenase-1 was expressed as a fusion protein with ubiquitin in E. coli (see Gehring, E. R., J Biol. Chem., 1995, 270, 22507). After purification of the fusion protein, the fibroblast collagenase-1 catalytic domain (HFC) was released either by treatment with purified, active stromelysin-1 (1:50 w/w ratio), which generated nearly 100% N-terminal Phe1, or by autoprocessing the concentrated collagenase-1 fusion and then incubating at 37° C. for 1 hour. Final purification was completed using zinc chelate chromatography.
as §1, §2, §3

T1 sequence (P08254 100-272 limits assumed): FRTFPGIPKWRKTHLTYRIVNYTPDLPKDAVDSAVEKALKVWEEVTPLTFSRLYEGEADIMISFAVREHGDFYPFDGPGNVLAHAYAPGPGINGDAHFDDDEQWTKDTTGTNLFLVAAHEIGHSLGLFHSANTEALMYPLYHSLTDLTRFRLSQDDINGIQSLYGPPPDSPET
T3 sequence (P08253 110-465 limits assumed): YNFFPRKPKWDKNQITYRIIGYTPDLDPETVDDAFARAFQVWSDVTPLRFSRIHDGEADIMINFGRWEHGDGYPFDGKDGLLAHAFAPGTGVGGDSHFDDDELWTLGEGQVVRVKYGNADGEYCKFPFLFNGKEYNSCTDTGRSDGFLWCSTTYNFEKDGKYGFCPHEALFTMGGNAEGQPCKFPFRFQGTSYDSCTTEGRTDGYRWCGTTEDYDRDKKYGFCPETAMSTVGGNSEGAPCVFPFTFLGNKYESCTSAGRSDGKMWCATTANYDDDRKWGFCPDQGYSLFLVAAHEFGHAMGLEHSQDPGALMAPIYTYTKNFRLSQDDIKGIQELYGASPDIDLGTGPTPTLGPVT

By melting point is commonly meant the temperature, or range, at which the solid turns liquid. For `N#Cc1ccc(-c2ccc(-c3ccn([C@H](CC(=O)O)C(=O)N[C@H](CO)Cc4ccccc4)c3)cc2)cc1` [Example 4(a), N-(1(S)-Benzyl-2-hydroxyethyl)-3(R)-[3-(4′-cyanobiphenyl-4-yl)-1H-pyrrol-1-yl]succinamic Acid], the melting point was in the range of 189 to 192 °C. Moreover, the Ki in series [1] came to 30 nM. Moreover, the Ki at Human matrilysin (Matr) came out at 5200 nM. The GelA (Ki,app) in series [2] came out at 1.3 nM. Moreover, in series [3], the Ki was determined as 2.7 nM.

With `CNC(=O)[C@@H](NC(=O)C(CC(=O)O)n1cnc(-c2ccc(-c3ccccc3)cc2)c1)C(C)(C)C` (mixture of isomers) [Example 18(c)], the melting point lay in the range of 187 to 188.2 °C. Also, in series [1], the Ki worked out at 180 nM. In addition, in series [4], the Ki was 24000 nM. In series [3], the Ki is 31 nM.

On to `CC(C)(C)[C@H](NC(=O)[C@@H](CC(=O)O)n1ccc(-c2ccc(-c3ccc(C#N)cc3)cc2)c1)C(=O)Nc1ccncc1` [Example 5(d), 3(R)-[3-(4′-Cyanobiphenyl-4-yl)-1H-pyrrol-1-yl]-N-[2,2-dimethyl-1(S)-(pyridin-4-ylcarbamoyl)propyl]succinamic Acid Formate Salt], for which the Ki in series [1] is 1.6 nM; on Human matrilysin (Matr), 4.5 nM; in series [4], above 2000 nM; in series [3], 0.23 nM. Moreover, in series [2], the GelA (Ki,app) amounted to 0.028 nM.

On to `CCC[C@H](C(=O)O)[C@H](C(=O)N[C@H](CO)C(C)(C)C)n1ccc(-c2ccc(-c3ccc(C#N)cc3)cc2)c1` [Example 10(c), 2S-[1R-(3-(4′-Cyanobiphenyl-4-yl)-1H-pyrrol-1-yl)-1-(2,2-dimethyl-1(S)-(hydroxymethyl)propylcarbamoyl)-methyl]-pentanoic Acid], for which the melting point was in the range of 130 to 132 °C. Besides, the Ki in series [1] was determined as 40 nM. At Human matrilysin (Matr), the Ki was found to be 2180 nM. Besides, the GelA (Ki,app) in series [2] came out at 22 nM. Further, the Ki in series [3] was 50 nM.

Take `O=C(O)C[C@H](C(=O)N[C@@H]1c2ccccc2C[C@H]1O)n1ccc(-c2ccc(-c3ccncc3)cc2)c1` [Example 6(a), N-(2(R)-Hydroxyindan-1(R)-yl)-3(R)-[3-[4-(pyridin-4-yl)phenyl]-1H-pyrrol-1-yl]succinamic Acid]: the Ki in series [1] is 15 nM; on Human matrilysin (Matr) it was 1500 nM; in series [4], 8860 nM; in series [3] it was 15.6 nM. For the same compound, the GelA (Ki,app) in series [2] was 6.62 nM.

Regarding `CNC(=O)[C@@H](NC(=O)C(CC(=O)NO)n1cnc(-c2ccc(-c3ccccc3)cc2)c1)C(C)(C)C` (mixture of isomers) [Example 19(e)], the Ki in series [1] was found to be 2.3 nM; in series [4] it was 310 nM; in series [3], 0.13 nM.

Turning to `COC[C@H](Cc1ccccc1)NC(=O)[C@@H](CC(=O)O)n1ccc(-c2ccc(-c3ccccc3)cc2)c1` [Example 1(f), N-(1(S)-Benzyl-2-methoxyethyl)-3(R)-[3-(biphenyl-4-yl)-1H-pyrrol-1-yl]succinamic Acid], the melting point came to 247 °C. In addition, the Ki in series [1] is 331 nM. Besides, the Ki on Human matrilysin (Matr) came to 1000 nM. Also, in series [2], the GelA (Ki,app) was 93 nM. In addition, the Ki in series [3] turned out to be 542 nM.

Regarding `O=C(O)C[C@H](C(=O)N[C@H](CO)c1ccccc1)n1ccc(-c2ccc(-c3ccncc3)cc2)c1` [Example 5(b), N-(2-Hydroxy-1(S)-phenylethyl)-3(R)-[3-[4-(pyridin-4-yl)phenyl]-1H-pyrrol-1-yl]succinamic Acid], the Ki in series [1] is 30 nM; at Human matrilysin (Matr), 5200 nM; in series [4] it was above 12000 nM; in series [3], 9.1 nM. In series [2], the GelA (Ki,app) worked out at 1.04 nM.

Turning to `CC(C)(C)[C@@H](CO)NC(=O)C(CC(=O)NO)n1cnc(-c2ccc(-c3ccccc3)cc2)c1` (mixture of isomers) [Example 19(b), 3(RS)-(3-Biphenyl-4-yl-1H-imidazol-1-yl)-N^4-(2,2-dimethyl-1(S)-hydroxymethylpropyl)-N^1-hydroxy-succindiamide], the values for the Ki in series [1], in series [4] and in series [3] were 17 nM, 66000 nM and 9.7 nM, respectively.

With `O=C(CC(C(=O)N[C@H]1CCCCNC1=O)n1cnc(-c2ccc(-c3ccccc3)cc2)c1)NO` (mixture of isomers) [Example 19(a)], the Ki in series [1] worked out at 31 nM; in series [4], 57000 nM; in series [3] it was 43 nM.

Take `COC(=O)c1ccc(NC(=O)[C@H](CC(C)C)NC(=O)[C@@H](CC(=O)O)n2ccc(-c3ccc(-c4ccccc4)cc3)c2)cc1` [Example 1(k), 4-[2S-[2(R)-[3-(Biphenyl-4-yl)-1H-pyrrol-1-yl]-3-carboxy-propionylamino]-4-methyl-pentanoylamino]benzoic Acid Methyl Ester]: the melting point was in the range of 209 to 211 °C. Besides, the Ki in series [1] came out at 0.15 nM. In addition, the Ki at Human matrilysin (Matr) was 11 nM. The GelA (Ki,app) in series [2] was 1.9 nM. In addition, in series [3], the Ki was 40 nM.
